# Reference: patent US9303042B2, “Triazolothienopyrimidine compound inhibitors of urea transporters and methods of using inhibitors” (The Regents of the University of California, priority 2012, dated 2016)
# Where two headings read alike, the source gives them in different places.
# Assays:
# [1] = In vitro metabolic stability in hepatic microsomes; assay type: in vitro ADME, rat; details: for % Remaining after 10 min incubation with liver microsomes: NADPH, compound 5 μM; for metabolic stability (in words): hepatic microsomes; for % Remaining: parent molecule after 30 min incubation with rat liver microsomes
# Protocol: Compounds, each at 5 μM, were incubated for specified times at 37° C. with rat liver microsomes (1 mg protein/ml; Sigma-Aldrich, St. Louis, Mo.) in potassium phosphate buffer (100 mM) containing 1 mM NADPH. The mixture was then chilled on ice, and 0.5 ml of ice-cold ethyl acetate was added.
# [2] = biological target: T1, UT-B (Mus musculus, UniProt Q8VHL0); assay: Erythrocyte lysis assay of UT-B inhibition; assay type: cell-based; set-up: Screening was performed using mouse erythrocytes, which strongly express UT-B; endogenous in cells; host or cells: erythrocytes in whole blood of wild-type CD1 mice; details: read-out: IC50
# T1 sequence (Q8VHL0 1-384): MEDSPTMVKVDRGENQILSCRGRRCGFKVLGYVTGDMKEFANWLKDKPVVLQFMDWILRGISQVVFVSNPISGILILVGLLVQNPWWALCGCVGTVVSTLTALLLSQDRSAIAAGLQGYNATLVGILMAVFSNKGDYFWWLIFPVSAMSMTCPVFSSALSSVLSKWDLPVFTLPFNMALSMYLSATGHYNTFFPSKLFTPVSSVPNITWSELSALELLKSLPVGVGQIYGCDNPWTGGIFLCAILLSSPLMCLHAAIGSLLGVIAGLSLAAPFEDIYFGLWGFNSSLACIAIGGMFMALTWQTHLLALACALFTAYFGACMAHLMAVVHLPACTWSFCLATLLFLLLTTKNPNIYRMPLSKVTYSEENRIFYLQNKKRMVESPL
# Protocol: Screening was performed using mouse erythrocytes, which strongly express UT-B and are highly water permeable because the cells also express aquaporin-1 (AQP1) water channels. The screening method involved assay of erythrocyte lysis in response to a large, outwardly directed gradient of acetamide, a urea analog that is transported efficiently by UT-B. A large, outwardly directed gradient of acetamide causes transient cell swelling, but little cell lysis, because UT-B-facilitated acetamide efflux limits water influx (see FIG. 1A). UT-B inhibition prevents acetamide efflux, allowing unopposed cell swelling and consequent cell lysis, which was recorded by reduced near-infrared light absorption at 710 nm.
# Primary screening was done using a collection of 100,000 diverse, drug-like compounds from commercial sources (ChemDiv, San Diego, Calif.; Asinex, Winston-Salem, N.C.). […] Vigorous mixing was achieved by repeated pipetting. Erythrocyte lysis was quantified by absorbance at 710 nm wavelength, made within 5 min after hypo-osmolar shock. […] For analysis of structure-activity relationships >900 commercially available analogs (ChemDiv and Asinex) were tested.
# [3] = Table 1, commercially available analogues, erythrocyte lysis assay
# [4] = Table 2, synthesized inhibitors, red blood cell lysis assay (n = 3), single-site saturation model
Compound,% Remaining after 10 min incubation with liver microsomes [1] [%],"IC50 [2, 3] [µM]",metabolic stability (in words) [1],% Remaining [1] [%],"IC50 [2, 4] [µM]",IC50 ([2]; erythrocyte lysis assay) [µM]
"CCc1ccc(S(=O)(=O)c2nnn3c2nc(NC(C)c2ccccc2)c2sccc23)cc1 (stereo not shown) [Compound 2bw, [3-(4-ethyl-benzenesulfonyl)-thieno[2,3-e][1,2,3]triazolo[1,5-a]pyrimidin-5-yl]-(1-phenyl-1-methyl)methyl-amine]",34,0.585,–,–,–,–
"Cc1ccc(S(=O)(=O)c2nnn3c2nc(NCc2cccs2)c2sccc23)cc1C [Compound 2bd, {3-[3,4-dimethyl-benzenesulfonyl]-thieno[2,3-e][1,2,3]triazolo[1,5-a]pyrimidin-5-yl}-thiophen-2-ylmethyl-amine]",<2,0.037,–,–,–,–
"O=S(=O)(c1ccc(C(F)(F)F)cc1)c1nnn2c1nc(NCc1cccs1)c1sccc12 [Compound 3c, Thiophen-2-ylmethyl-[3-(4-trifluoromethyl-benzenesulfonyl)-thieno[2,3-e][1,2,3]triazolo[1,5-a]pyrimidin-5-yl]-amine]",–,–,improved metabolic stability,99,0.537,–
CCCCNc1nc2c(S(=O)(=O)c3ccc(Br)cc3)nnn2c2ccsc12 [Compound 2cu],76,1.9,–,–,–,–
Cc1ccc(S(=O)(=O)c2nnn3c2nc(NCCC(C)C)c2sccc23)cc1C [Compound 2au],35,0.854,–,–,–,–
CCCCNc1nc2c(S(=O)(=O)c3ccc(Cl)cc3)nnn2c2ccsc12 [Compound 2bg],74,1.27,–,–,–,–
"CCc1ccc(S(=O)(=O)c2nnn3c2nc(NCc2ccc(F)cc2)c2sccc23)cc1 [Compound 2ca, [3-(4-ethyl-benzenesulfonyl)-thieno[2,3-e][1,2,3]triazolo[1,5-a]pyrimidin-5-yl]-(4-fluoro-benzyl)-amine]",41,0.384,–,–,–,–
"O=S(=O)(c1ccc(F)cc1)c1nnn2c1nc(NCc1cccs1)c1sccc12 [Compound 3h, [3-(4-Fluoro-benzenesulfonyl)-thieno[2,3-e][1,2,3]triazolo[1,5-a]pyrimidin-5-yl]-thiophen-2-ylmethyl-amine]",–,–,–,27,0.468,–
"CCc1ccc(S(=O)(=O)c2nnn3c2nc(NCc2ccc(Cl)cc2)c2sccc23)cc1 [Compound 2bt, [3-(4-ethyl-benzenesulfonyl)-thieno[2,3-e][1,2,3]triazolo[1,5-a]pyrimidin-5-yl]-(4-chloro-benzyl)-amine]",81,0.374,improved metabolic stability,–,–,–
"COCCCNc1nc2c(S(=O)(=O)c3cc(C)ccc3C)nnn2c2ccsc12 [Compound 2cr, {3-[2,5-dimethyl-benzenesulfonyl]-thieno[2,3-e][1,2,3]triazolo[1,5-a]pyrimidin-5-yl}-3-methoxypropyl-amine]",26,1.4,–,–,–,–
Cc1ccc(S(=O)(=O)c2nnn3c2nc(N2CCOCC2)c2sccc23)cc1C [Compound 2an],6,1.71,–,–,–,–
"CCc1ccc(S(=O)(=O)c2nnn3c2nc(NCCCOC)c2sccc23)cc1 [Compound 2cb, {3-[4-ethyl-benzenesulfonyl]-thieno[2,3-e][1,2,3]triazolo[1,5-a]pyrimidin-5-yl}-3-methoxypropyl-amine]",<2,–,–,–,–,0.212
"CC(C)c1ccc(S(=O)(=O)c2nnn3c2nc(NCc2ccco2)c2sccc23)cc1 [Compound 3b, Furan-2-ylmethyl-[3-(4-isopropyl-benzenesulfonyl)-thieno[2,3-e][1,2,3]triazolo[1,5-a]pyrimidin-5-yl]-amine]",–,–,–,>99,16.6,–
"CCc1ccc(S(=O)(=O)c2nnn3c2nc(NCc2ccco2)c2sccc23)cc1 [Compound 2bp, furan-2-ylmethyl-[3-(4-ethyl-benzenesulfonyl)-thieno[2,3-e][1,2,3]triazolo[1,5-a]pyrimidin-5-yl]-amine]",12,–,–,–,–,0.239
"COCCNc1nc2c(S(=O)(=O)c3cc(C)ccc3C)nnn2c2ccsc12 [Compound 2co, {3-[2,5-dimethyl-benzenesulfonyl]-thieno[2,3-e][1,2,3]triazolo[1,5-a]pyrimidin-5-yl}-2-methoxyethyl-amine]",29,1.19,–,–,–,–
CCc1ccc(S(=O)(=O)c2nnn3c2nc(NC(C)C)c2sccc23)cc1 [Compound 2ce],4,0.948,–,–,–,–
"COc1ccc(S(=O)(=O)c2nnn3c2nc(NCc2cccs2)c2sccc23)cc1 [Compound 3f, [3-(4-Methoxy-benzenesulfonyl)-thieno[2,3-e][1,2,3]triazolo[1,5-a]pyrimidin-5-yl]-thiophen-2-ylmethyl-amine]",–,–,–,6,0.104,–
"COCCNc1nc2c(S(=O)(=O)c3ccc(C(C)C)cc3)nnn2c2ccsc12 [Compound 2bo, {3-[4-isopropyl-benzenesulfonyl]-thieno[2,3-e][1,2,3]triazolo[1,5-a]pyrimidin-5-yl}-2-methoxyethyl-amine]",14,0.711,–,–,–,–
"COc1ccccc1CNc1nc2c(S(=O)(=O)c3ccc(C)c(C)c3)nnn2c2ccsc12 [Compound 2as, [3-(3,4-dimethyl-benzenesulfonyl)-thieno[2,3-e][1,2,3]triazolo[1,5-a]pyrimidin-5-yl]-(2-methoxy-benzyl)-amine]",15,1.04,–,–,–,–
"O=S(=O)(c1ccc(Cl)cc1)c1nnn2c1nc(NCc1ccco1)c1sccc12 [Compound 2bf, furan-2-ylmethyl-[3-(4-chloro-benzenesulfonyl)-thieno[2,3-e][1,2,3]triazolo[1,5-a]pyrimidin-5-yl]-amine]",21,1.87,–,–,–,–
CCCCNc1nc2c(S(=O)(=O)c3ccc(C(C)C)cc3)nnn2c2ccsc12 [Compound 2bm],<2,0.191,–,–,–,–
"O=S(=O)(c1ccc(Br)cc1)c1nnn2c1nc(NCc1cccs1)c1sccc12 [Compound 3i, [3-(4-Bromo-benzenesulfonyl)-thieno[2,3-e][1,2,3]triazolo[1,5-a]pyrimidin-5-yl]-thiophen-2-ylmethyl-amine]",–,–,improved metabolic stability,60,0.032,–
"COCCCNc1nc2c(S(=O)(=O)c3ccccc3)nnn2c2ccsc12 [Compound 2ab, {3-benzenesulfonyl-thieno[2,3-e][1,2,3]triazolo[1,5-a]pyrimidin-5-yl}-3-methoxypropyl-amine]",27,4.35,–,–,–,–
"O=S(=O)(c1ccc(OC(F)(F)F)cc1)c1nnn2c1nc(NCc1cccs1)c1sccc12 [Compound 3d, Thiophen-2-ylmethyl-[3-(4-trifluoromethoxy-benzenesulfonyl)-thieno[2,3-e][1,2,3]triazolo[1,5-a]pyrimidin-5-yl]-amine]",–,–,improved metabolic stability,95,1.12,–
Cc1ccc(S(=O)(=O)c2nnn3c2nc(N2CCCCC2)c2sccc23)cc1C [Compound 2az],<2,1.76,–,–,–,–
"CCc1ccc(S(=O)(=O)c2nnn3c2nc(NCCOC)c2sccc23)cc1 [Compound 2by, {3-[4-ethyl-benzenesulfonyl]-thieno[2,3-e][1,2,3]triazolo[1,5-a]pyrimidin-5-yl}-2-methoxyethyl-amine]",<2,0.334,–,–,–,–
"CCc1ccc(S(=O)(=O)c2nnn3c2nc(NCCCOC(C)C)c2sccc23)cc1 [Compound 2cf, {3-[4-ethyl-benzenesulfonyl]-thieno[2,3-e][1,2,3]triazolo[1,5-a]pyrimidin-5-yl}-3-(1-methylethoxyl)propyl-amine]",<2,0.433,–,–,–,–
"COc1ccc(CNc2nc3c(S(=O)(=O)c4ccc(C)cc4)nnn3c3ccsc23)cc1 [Compound 2ad, [3-(4-methyl-benzenesulfonyl)-thieno[2,3-e][1,2,3]triazolo[1,5-a]pyrimidin-5-yl]-(4-methoxy-benzyl)-amine]",80,1.66,improved metabolic stability,–,–,–
